Laboratory results as given in publication PMC5998037, “Glutamine 89 is a key residue in the allosteric modulation of human serine racemase activity by ATP” (Scientific Reports, 2018).
Positions count from the first letter of the chain named. “And” between values parts separate entries of the source, which are not always exact repeats. Equal entries are not always repeated. Where two headings read alike, the source gives them in different places. Values belong to the compound of their own block, whether it stands above or below them.

Assays:
StTdcB = tested on: StTdcB; design: method as in PMID 17046821; settings: 5 mM AMP; cited from earlier work
Q89M-hSR [1] = target: T1, Q89M-hSR (Homo sapiens, UniProt Q9GZT4, Q89M); assay: Activation of L-Ser dehydratase activity by ATP; type: biochemical
T1 construct: hexa-His; made in house; host or cells: E. coli BL21 CodonPlus (DE3)-RIL with GroEL/GroES
T1 sequence (Q9GZT4 1-340 Q89M): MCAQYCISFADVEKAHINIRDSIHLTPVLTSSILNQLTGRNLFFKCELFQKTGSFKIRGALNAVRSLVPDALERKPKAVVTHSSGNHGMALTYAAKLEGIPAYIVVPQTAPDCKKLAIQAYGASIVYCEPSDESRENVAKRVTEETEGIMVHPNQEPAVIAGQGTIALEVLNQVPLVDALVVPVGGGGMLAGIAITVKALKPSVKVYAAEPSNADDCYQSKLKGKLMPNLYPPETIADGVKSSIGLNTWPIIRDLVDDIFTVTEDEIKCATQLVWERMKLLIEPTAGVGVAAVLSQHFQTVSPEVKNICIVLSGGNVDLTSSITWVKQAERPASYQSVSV
Experimental: (§1) Nicotinamide adenine dinucleotide (NADH) consumption was followed at 340 nm using a Varian Cary4000 spectrophotometer. The assay solution in buffer A contained 5 mM DTT, 30 U/ml LDH and 300 μM NADH. The concentration of magnesium used in the assay was always higher than or equal to the concentration of ATP. If not otherwise stated, it was set to 2 mM. […] The concentration used in the assay for D-Ser dehydration was 3.1 and 6.0 μM in the presence and absence of ATP, respectively.
(§2) The fluorescence emission intensity was collected at 480 nm for glycine titration, at 492 nm for ATP titration and at 478 nm for ATP titration in the presence of glycine. The kinetic parameters were calculated using the Michaelis –Menten equation:3 v0=Vmax⋅[S]/Km+[S] where v0 is the initial enzymatic rate, Vmax is the rate at substrate saturation, Km is the Michaelis constant and [S] is the substrate concentration.

Q89A-hSR [2] = target: T2, Q89A-hSR (Homo sapiens, UniProt Q9GZT4, Q89A); assay: Activation of L-Ser dehydratase activity by ATP; type: biochemical
T2 construct: hexa-His; made in house; host or cells: E. coli BL21 CodonPlus (DE3)-RIL with GroEL/GroES
T2 sequence (Q9GZT4 1-340 Q89A): T1 sequence (Q9GZT4 1-340 Q89M) with M89A
Experimental: as §1, §2

Q89M-hSR [3] = target: T1, Q89M-hSR; assay: Fluorimetric titrations (PLP fluorescence emission); type: binding
Experimental: Fluorescence emission spectra upon excitation at 412 nm were collected using a FluoroMax-3 fluorometer (HORIBA Jobin Yvon, Kyoto, Japan) at 20.0 ± 0.5 °C. […] Binding of either glycine or ATP was measured by direct titrations of the protein solution in the range 0–1.2 mM and 0–1.0 mM, respectively. […] Spectra were corrected for buffer contribution. Far-UV circular dichroism spectra (195–260 nm) were collected using a JASCO J-715 spectropolarimeter (Easton, MD, USA). […] Each spectrum is the average of three independent measurements.
as §2

Q89M-hSR [4] = target: T1, Q89M-hSR; assay: L-Ser dehydration (LDH-coupled assay); type: biochemical; settings: L-Ser dehydration by Q89M-hSR, 2 mM ATP vs absence of nucleotide
Experimental: (§3) The initial velocity of L-serine dehydration by hSR was monitored by a coupled assay with lactate dehydrogenase (LDH)[5] as previously reported. Nicotinamide adenine dinucleotide (NADH) consumption was followed at 340 nm using a Varian Cary4000 spectrophotometer. The assay solution in buffer A contained 5 mM DTT, 30 U/ml LDH and 300 μM NADH. The concentration of magnesium used in the assay was always higher than or equal to the concentration of ATP. If not otherwise stated, it was set to 2 mM. The protein concentration used in the assay for L-Ser dehydration was 0.4 and 1.6 μM in the presence and absence of 2 mM ATP, respectively. The concentration used in the assay for D-Ser dehydration was 3.1 and 6.0 μM in the presence and absence of ATP, respectively.
(§4) The half-maximal activation (EC50) caused by ATP binding to hSR was calculated with Eq. (1):1 vi/v0=a⋅[ATP]/EC50+[ATP] where vi is the velocity of the reaction catalysed by the enzyme in presence of a defined ATP concentration, v0 is the velocity of the reaction catalysed by the enzyme in the absence of ATP and a is the difference between the maximum and the basal activity. The dissociation constant (KD) of ligands for hSR calculated by fluorimetric titrations was calculated with Eq. (2):2 y=y0+a⋅[L]/KD+[L] where y is the fluorescence emission intensity, [L] is the ligand concentration, y0 is an offset and a is the amplitude. The fluorescence emission intensity was collected at 480 nm for glycine titration, at 492 nm for ATP titration and at 478 nm for ATP titration in the presence of glycine. The kinetic parameters were calculated using the Michaelis –Menten equation:3 v0=Vmax⋅[S]/Km+[S] where v0 is the initial enzymatic rate, Vmax is the rate at substrate saturation, Km is the Michaelis constant and [S] is the substrate concentration. Catalytic efficiency for the dehydratase activity of Q89A-hSR on D-Ser was calculated at [D-Ser] < Km, where equation (3) becomes v0≅Vmax/Km .

Q89A-hSR [5] = target: T2, Q89A-hSR; assay: L-Ser dehydration (LDH-coupled assay); type: biochemical; settings: L-Ser dehydration by Q89A-hSR, 2 mM ATP vs absence of nucleotide
Experimental: as §3, §4

Q89M-hSR [6] = target: T1, Q89M-hSR; assay: L-Ser racemisation (DAAO-coupled discontinuous assay); type: biochemical; settings: L-Ser racemisation by Q89M-hSR, 2 mM ATP vs absence of nucleotide
Experimental: (§5) The formation of D-serine as a function of L-serine concentration was determined using a discontinuous assay, based on oxidation of D-serine by the enzyme DAAO (Sigma Aldrich, A5222)[18],[37],[54]. This reaction produces hydrogen peroxide, that is used by the horseradish peroxidase to oxidize o-dianisidine dihydrochloride to form a chromophoric product. After the addition of sulphuric acid to increase the solubility, the concentration of this product can be measured at 550 nm. L-serine at various final concentrations was added to buffer A containing 1.5 µM hSR, in the absence and presence of 2 mM ATP. The reaction mixture was incubated at 37 °C and aliquots were periodically removed to determine D-serine concentration. L-serine was purified from any D-serine contaminations through 48 hours of incubation with 400 U/ml of DAAO and 100 U/ml of catalase, which were subsequently thermally inactivated. Absolute D-serine concentrations were determined using calibrations curves obtained by reacting known D-serine concentrations with DAAO. Absorbance signal was acquired by a Halo LED 96 plate reader (Dynamica Scientific, UK).
as §4, with “The kinetic parameters were calculated using the Michaelis –Menten equation:3 v0=Vmax⋅[S]/Km+[S] where v0 is the initial enzymatic rate, Vmax is the rate at substrate saturation, Km is the Michaelis constant and [S] is the substrate concentration.” left out

hSR [7] = target: T3, hSR (Homo sapiens, UniProt Q9GZT4); assay: as above; type: biochemical; settings: L-Ser racemisation by hSR, 2 mM ATP vs absence of nucleotide
T3 construct: His tag; made in house; host or cells: Escherichia coli (co-expressed with chaperones)
T3 sequence (Q9GZT4 1-340): T1 sequence (Q9GZT4 1-340 Q89M) with M89Q
Experimental: as §5
as §4, with “The kinetic parameters were calculated using the Michaelis –Menten equation:3 v0=Vmax⋅[S]/Km+[S] where v0 is the initial enzymatic rate, Vmax is the rate at substrate saturation, Km is the Michaelis constant and [S] is the substrate concentration.” left out

Q89A-hSR [8] = target: T2, Q89A-hSR; assay: as above; type: biochemical; settings: L-Ser racemisation by Q89A-hSR, 2 mM ATP vs absence of nucleotide
Experimental: as §5
as §4, with “The kinetic parameters were calculated using the Michaelis –Menten equation:3 v0=Vmax⋅[S]/Km+[S] where v0 is the initial enzymatic rate, Vmax is the rate at substrate saturation, Km is the Michaelis constant and [S] is the substrate concentration.” left out

hSR [9] = target: T3, hSR; design: method as in PMID 23992455; settings: cited from earlier work; for Kd: hSR
Q89M-hSR [10] = target: T1, Q89M-hSR; assay: D-Ser dehydration (LDH-coupled assay); type: biochemical; settings: D-Ser dehydration by Q89M-hSR, 2 mM ATP vs absence of nucleotide
Experimental: as §3, §4

hSR [11] = target: T3, hSR; assay: D-Ser dehydration (LDH-coupled assay); type: biochemical; settings: D-Ser dehydration by hSR
Experimental: as §3, §4

Q89A-hSR [12] = target: T2, Q89A-hSR; assay: D-Ser dehydration (LDH-coupled assay); type: biochemical; settings: D-Ser dehydration by Q89A-hSR, ATP vs absence of nucleotide
Experimental: as §3, §4

hSR [13] = target: T3, hSR; design: method as in PMID 23992455; settings: wt hSR, cited from earlier work
hSR [14] = target: T3, hSR; assay: L-Ser dehydration (LDH-coupled assay); type: biochemical; settings: hSR saturated with ATP
Experimental: as §3, §4

[15] = 2 mM ATP, preliminary, data not shown

kcat (hSR [11]; −ATP): 0.0283 ± 0.0017 s⁻¹
SMILES: N[C@H](CO)C(=O)O [D-Ser, D-serine]

dehydratase activity efficiency relative to racemisation (hSR [14]): 15 fold
SMILES: N[C@@H](CO)C(=O)O [L-Ser, L-serine]

Second part, the compound before the results:

SMILES: Nc1ncnc2c1ncn2[C@@H]1O[C@H](COP(=O)(O)O)[C@@H](O)[C@H]1O [AMP]
fold decrease in Km (StTdcB): 7.7 fold | fold increase in Vmax (StTdcB): 3 fold

SMILES: Nc1ncnc2c1ncn2[C@@H]1O[C@H](COP(=O)(O)OP(=O)(O)OP(=O)(O)O)[C@@H](O)[C@H]1O [ATP]
fold increase of specific dehydratase activity (Q89M-hSR [1]; [15]): about 4 fold | effect on activity of further addition of ATP (Q89M-hSR [1]; ATP up to 10 mM): not increased | cooperativity of ATP binding (activity assay) (Q89M-hSR [1]; saturating 300 mM L-Ser): non-cooperative | EC50 (Q89M-hSR [1]; saturating 300 mM L-Ser, read-out: half-maximal activation (EC50) by ATP, L-Ser dehydratase activity): 21 ± 2 µM | fold increase of specific dehydratase activity (Q89A-hSR [2]; [15]): about 4 fold | effect on activity of further addition of ATP (Q89A-hSR [2]; ATP up to 10 mM): not increased | cooperativity of ATP binding (activity assay) (Q89A-hSR [2]; saturating 300 mM L-Ser): non-cooperative | difference between KD and EC50 of ATP (Q89M-hSR [3]; Q89M-hSR, KD without substrate vs EC50 with 300 mM L-Ser): 6 fold | cooperativity of ATP binding (fluorimetric titration) (Q89M-hSR [3]; Q89M-hSR, absence of substrate): no cooperativity | fold increase in fluorescence emission intensity upon ATP binding (Q89M-hSR [3]; Q89M-hSR, excitation at 412 nm, absence of substrate): 1.65 fold | Kd (Q89M-hSR [3]; Q89M-hSR, ligand 2 Glycine (1 mM)): 48 ± 5 µM | Kd (Q89M-hSR [3]; Q89M-hSR, no ligand 2 (absence of substrate/glycine)): 154 ± 13 µM | Increase (fold increase of catalytic efficiency kcat/Km in the presence of ATP) (Q89M-hSR [4]): 3.9 fold | Increase (fold increase of catalytic efficiency kcat/Km in the presence of ATP) (Q89A-hSR [5]): 3.3 fold | Increase (fold increase of catalytic efficiency kcat/Km in the presence of ATP) (Q89M-hSR [6]): 1.8 fold | Increase (fold increase of catalytic efficiency kcat/Km in the presence of ATP) (hSR [7]): 2 fold and 1.9 fold | Increase (fold increase of catalytic efficiency kcat/Km in the presence of ATP) (Q89A-hSR [8]): 1.6 fold | Kd (hSR [9]; ligand 2 Glycine): 4.9 ± 0.6 µM | Hill coefficient of nucleotide binding (hSR [9]; human enzyme): about 2 | Hill coefficient n, fluorimetric titration with ATP (hSR [9]; wt hSR, sigmoidal fit): 1.8 ± 0.1 | EC50 (hSR [9]; wt hSR, sigmoidal fit, read-out: EC50 of ATP, fluorimetric titration): 257 ± 10 µM | Increase (fold increase of catalytic efficiency kcat/Km in the presence of ATP) (Q89M-hSR [10]): 2.8 fold | Increase (fold increase of catalytic efficiency kcat/Km in the presence of ATP) (hSR [11]; 2 mM ATP vs absence of nucleotide): 4.0 fold | Increase (fold increase of catalytic efficiency kcat/Km in the presence of ATP) (Q89A-hSR [12]): 2.3 fold | fold increase of specific dehydratase activity (hSR [13]; 2 mM ATP): 7 fold | Hill coefficient n of ATP dependence of L-Ser dehydratase activity (hSR [13]; sigmoidal fit): 1.7 ± 0.2 and 1.7 | EC50 (hSR [13]; sigmoidal fit, read-out: half maximal effective concentration of ATP (EC50), L-Ser dehydratase activity): 220 ± 10 µM

SMILES: NCC(=O)O [Glycine]
fold higher affinity for Q89M-hSR (vs wt hSR) (Q89M-hSR [3]; Q89M-hSR vs hSR): more than 60 fold | Kd (Q89M-hSR [3]; Q89M-hSR, ligand 2 ATP (2 mM)): 28 ± 3 µM | Kd (Q89M-hSR [3]; Q89M-hSR, no ligand 2 (absence of ATP)): 110 ± 2 µM | Kd (hSR [9]; ligand 2 ATP): 470 ± 30 µM | Kd (hSR [9]; no ligand 2): 7000 ± 300 µM
